How the values were obtained:
[1] = target: Human immunodeficiency virus type 1 protease (Human immunodeficiency virus 1, UniProt Q72874); assay: Tested for inhibitory activity against HIV protease
Lymphocytoid cell line [2] = assay: Tested for the ability to inhibit viral replication (HIV-1 RNA) in human lymphocytoid cell lines MT-2 or MT-4 using the RF strain of HIV-1; format: functional
Lymphocytoid cell line [3] = assay: Tested for cytotoxicity (concentration required to reduce 50% of the viable cell population) in presence of metabolizable tetrazolium dye in human lymphocytoid cell lines MT-2 or MT-4 using the RF strain of HIV-1; format: functional; settings: read-out: TC50 (the source's name)
[4] = Cmax in plasma was determined upon peroral administration of 10.0 mg/Kg dose in rat; format: ADME, organism-based; parameters: dose 10 mg/Kg, route oral; settings: po
[5] = Tested for volume of distribution at steady state upon intravenous administration of 5.0 mg/Kg dose in rat; format: ADME, organism-based; settings: in vivo, read-out: Vss
[6] = Tested for t1/2 upon intravenous administration of 5.0 mg/Kg dose in rat; format: ADME, organism-based; settings: in vivo
[7] = Tested for systemic clearance upon intravenous administration of 5.0 mg/Kg dose in rat; format: ADME, organism-based; settings: in vivo
[8] = tested on: Human immunodeficiency virus 1; assay: Tested for the ability to block cleavage of HIV-1 gag polyprotein using [35S]methionine-labeled ligand; format: functional, organism-based
[9] = tested on: Human immunodeficiency virus; assay: Ability to inhibit p24 mutant variant […] was determined; format: functional; settings: Human immunodeficiency virus 1
[10] = Tested for t1/2 upon intravenous administration of 5.0 mg/Kg dose in dog; format: ADME, organism-based, Canis lupus familiaris; settings: in vivo
[11] = tmax upon peroral administration of 10.0 mg/Kg dose in dog; format: ADME, organism-based, Canis lupus familiaris; settings: in vivo, po
[12] = Tested for systemic clearance upon intravenous administration of 5.0 mg/Kg dose in dog; format: ADME, organism-based, Canis lupus familiaris; settings: in vivo
[13] = tested on: Human immunodeficiency virus; assay: Ability to inhibit p24 mutant variant V82F was determined; format: functional; settings: Human immunodeficiency virus 1
[14] = Bioavailability in dog (dose 10.0 mg/kg p.o.); format: ADME, organism-based, Canis lupus familiaris; settings: in vivo, po
[15] = tested on: Human immunodeficiency virus; assay: Ability to inhibit p24 mutant variant HxB2 wild type was determined; format: functional; settings: Human immunodeficiency virus 1
[16] = Tested for t1/2 upon peroral administration of 10.0 mg/Kg dose in dog; format: ADME, organism-based, Canis lupus familiaris; settings: in vivo, po
[17] = Tested for t1/2 upon peroral administration of 10.0 mg/Kg dose in rat; format: ADME, organism-based; settings: in vivo, po
[18] = Cmax in plasma was determined upon peroral administration of 10.0 mg/Kg dose in dog; format: ADME, organism-based, Canis lupus familiaris; parameters: dose 10 mg/Kg, route oral; settings: po
[19] = tested on: Human immunodeficiency virus; assay: Ability to inhibit p24 mutant variant V82F/[…] was determined; format: functional; settings: Human immunodeficiency virus 1
[20] = Tested for volume of distribution at steady state upon intravenous administration of 5.0 mg/Kg dose in dog; format: ADME, organism-based, Canis lupus familiaris; settings: in vivo, read-out: Vss
[21] = Bioavailability upon peroral administration of 10.0 mg/Kg dose in rat; format: ADME, organism-based; settings: in vivo, po, read-out: Bioavailabiility
[22] = tmax upon peroral administration of 10.0 mg/Kg dose in rat; format: ADME, organism-based; settings: in vivo, po

Row | SMILES | Ki [1] | IC90 (Lymphocytoid cell line [2]) | CC50 (Lymphocytoid cell line [3]) | Cmax [4] | Vd [5] | half-life [6] | clearance [7] | IC50 [8] | IC90 [9] | half-life [10] | Tmax [11] | clearance [12] | IC90 [13] | bioavailability [14] | IC90 [15] | half-life [16] | half-life [17] | Cmax [18] | IC90 [19] | Vd [20] | also measured
1 | CC(C)(O)c1ccc(CN2C(=O)N(Cc3ccc(C(C)(C)O)cc3)[C@H](Cc3ccccc3)[C@H](O)[C@@H](O)[C@H]2Cc2ccccc2)cc1 | 2.2 nM | 8040 nM | 39300 nM |  |  |  |  |  |  |  |  |  |  |  |  |  |  |  |  |  | 
2 | O=C1N(Cc2cccc(CO)c2)[C@H](Cc2ccccc2)[C@H](O)[C@@H](O)[C@@H](Cc2ccccc2)N1Cc1cccc(CO)c1 | 0.4 nM | 38.8 nM | 54700 nM | 470 ng/mL | 9.8 L/kg | 1.1 h | 103 mL/min/kg | 7.9 nM |  |  |  |  |  |  |  |  |  |  |  |  | 
3 | CC(C)(O)c1cccc(CN2C(=O)N(Cc3cccc(C(C)(C)O)c3)[C@H](Cc3ccccc3)[C@H](O)[C@@H](O)[C@H]2Cc2ccccc2)c1 | 0.067 nM | 33.7 nM | 33400 nM | 630 ng/mL | 3.04 L/kg | 1.03 h | 31.8 mL/min/kg | 15 nM | 72.2 nM | 1.2 h | 0.42 h | 15.5 mL/min/kg | 84.3 nM | < 4% | 22.2 nM | 0.65 h | 1.5 h | 240 ng/mL | 5780 nM | 1.65 L/kg | 
4 | O=C1N(Cc2ccc(CO)cc2)[C@H](Cc2ccccc2)[C@H](O)[C@@H](O)[C@@H](Cc2ccccc2)N1Cc1ccc(CO)cc1 [DMP-323] | 0.31 nM | 176 nM | 67500 nM | 450 ng/mL | 6.36 L/kg | 0.95 h | 119 mL/min/kg | 35.7 nM | 989 nM | 1.8 h | 0.5 h | 24.7 mL/min/kg | 675 nM | 38.4% | 95.6 nM | 1.08 h | 1.5 h | 1480 ng/mL | 22000 nM | 2.28 L/kg | bioavailability [21]: 27.1%; Tmax [22]: 0.25 h

Source: ChEMBL document CHEMBL1128104, “A bis-[N-3-(1-hydroxy-1-methyl-ethyl)-benzyl)-cyclic urea as a HIV protease inhibitor” (Bioorg Med Chem Lett, 1995)
